IC50 data for eight compounds are collected here from patent publication US9340590B2 (priority 2011, dated 2016).

The target in one experiment is hNav1.5 (Homo sapiens, UniProt Q14524). Kind of experiment: cell-based.
Another experiment deals with hNav1.7 (Homo sapiens, UniProt Q15858). Kind of experiment: cell-based. To be noted: Nav1.7 Use IC50.

Positions of bridges follow the written chain, without caps; N, C: chain ends. Non-standard residues stand in square brackets, D forms with d. Residues, ends and D or L forms follow the SMILES beside them. hArg = N=C(N)NCCCC[C@H](N)C(=O)O; Dab = NCC[C@H](N)C(=O)O

Chain of hNav1.7 (Q15858 whole entry, looked up): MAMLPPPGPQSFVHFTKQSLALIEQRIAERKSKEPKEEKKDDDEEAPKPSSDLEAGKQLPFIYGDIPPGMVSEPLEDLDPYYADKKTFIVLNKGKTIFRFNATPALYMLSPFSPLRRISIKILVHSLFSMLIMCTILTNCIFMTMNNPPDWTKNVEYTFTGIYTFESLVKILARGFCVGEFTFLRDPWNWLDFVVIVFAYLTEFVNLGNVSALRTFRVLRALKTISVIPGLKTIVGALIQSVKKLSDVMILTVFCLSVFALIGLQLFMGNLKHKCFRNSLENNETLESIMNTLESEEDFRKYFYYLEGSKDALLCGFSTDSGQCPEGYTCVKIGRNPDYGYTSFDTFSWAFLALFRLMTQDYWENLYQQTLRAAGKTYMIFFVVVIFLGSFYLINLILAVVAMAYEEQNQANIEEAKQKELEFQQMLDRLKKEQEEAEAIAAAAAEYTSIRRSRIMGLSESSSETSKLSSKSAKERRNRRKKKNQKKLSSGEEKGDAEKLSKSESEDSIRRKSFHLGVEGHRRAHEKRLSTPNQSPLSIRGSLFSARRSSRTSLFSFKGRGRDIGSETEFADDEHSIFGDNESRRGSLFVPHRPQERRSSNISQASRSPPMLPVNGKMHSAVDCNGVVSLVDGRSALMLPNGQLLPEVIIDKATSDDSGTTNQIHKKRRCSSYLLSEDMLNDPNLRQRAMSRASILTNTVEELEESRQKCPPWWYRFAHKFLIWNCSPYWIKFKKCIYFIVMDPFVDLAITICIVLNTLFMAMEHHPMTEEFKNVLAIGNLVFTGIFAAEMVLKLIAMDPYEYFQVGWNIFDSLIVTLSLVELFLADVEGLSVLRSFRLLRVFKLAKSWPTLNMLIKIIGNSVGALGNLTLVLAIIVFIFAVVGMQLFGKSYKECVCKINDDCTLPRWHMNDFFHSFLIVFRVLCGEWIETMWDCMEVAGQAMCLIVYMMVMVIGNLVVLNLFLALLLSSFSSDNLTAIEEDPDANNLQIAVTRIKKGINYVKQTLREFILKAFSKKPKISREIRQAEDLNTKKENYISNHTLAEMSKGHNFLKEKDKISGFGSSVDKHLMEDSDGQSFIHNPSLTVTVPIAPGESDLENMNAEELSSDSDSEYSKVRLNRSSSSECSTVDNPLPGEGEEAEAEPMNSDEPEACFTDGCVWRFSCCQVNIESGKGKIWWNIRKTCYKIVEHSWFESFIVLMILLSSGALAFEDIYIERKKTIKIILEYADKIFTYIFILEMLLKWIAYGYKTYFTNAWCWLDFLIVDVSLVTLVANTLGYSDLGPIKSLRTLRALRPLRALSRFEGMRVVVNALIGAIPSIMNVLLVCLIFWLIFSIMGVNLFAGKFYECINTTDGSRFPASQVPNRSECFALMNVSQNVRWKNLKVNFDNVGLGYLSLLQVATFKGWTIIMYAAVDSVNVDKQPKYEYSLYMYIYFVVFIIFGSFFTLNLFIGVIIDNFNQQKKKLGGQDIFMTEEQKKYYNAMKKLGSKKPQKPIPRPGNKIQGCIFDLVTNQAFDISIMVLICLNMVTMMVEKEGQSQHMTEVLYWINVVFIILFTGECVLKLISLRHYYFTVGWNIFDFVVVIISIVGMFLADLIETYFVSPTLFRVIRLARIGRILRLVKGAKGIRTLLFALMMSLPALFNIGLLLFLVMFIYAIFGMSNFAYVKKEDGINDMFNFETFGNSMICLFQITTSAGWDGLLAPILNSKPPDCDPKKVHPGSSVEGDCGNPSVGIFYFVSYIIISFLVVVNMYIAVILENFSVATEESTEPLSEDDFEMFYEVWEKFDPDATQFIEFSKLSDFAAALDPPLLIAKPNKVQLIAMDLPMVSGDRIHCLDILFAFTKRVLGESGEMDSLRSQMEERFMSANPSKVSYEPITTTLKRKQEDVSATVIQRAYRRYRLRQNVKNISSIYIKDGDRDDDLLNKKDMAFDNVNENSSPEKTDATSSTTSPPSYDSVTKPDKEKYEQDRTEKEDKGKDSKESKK
Chain of hNav1.5 (Q14524 whole entry, looked up): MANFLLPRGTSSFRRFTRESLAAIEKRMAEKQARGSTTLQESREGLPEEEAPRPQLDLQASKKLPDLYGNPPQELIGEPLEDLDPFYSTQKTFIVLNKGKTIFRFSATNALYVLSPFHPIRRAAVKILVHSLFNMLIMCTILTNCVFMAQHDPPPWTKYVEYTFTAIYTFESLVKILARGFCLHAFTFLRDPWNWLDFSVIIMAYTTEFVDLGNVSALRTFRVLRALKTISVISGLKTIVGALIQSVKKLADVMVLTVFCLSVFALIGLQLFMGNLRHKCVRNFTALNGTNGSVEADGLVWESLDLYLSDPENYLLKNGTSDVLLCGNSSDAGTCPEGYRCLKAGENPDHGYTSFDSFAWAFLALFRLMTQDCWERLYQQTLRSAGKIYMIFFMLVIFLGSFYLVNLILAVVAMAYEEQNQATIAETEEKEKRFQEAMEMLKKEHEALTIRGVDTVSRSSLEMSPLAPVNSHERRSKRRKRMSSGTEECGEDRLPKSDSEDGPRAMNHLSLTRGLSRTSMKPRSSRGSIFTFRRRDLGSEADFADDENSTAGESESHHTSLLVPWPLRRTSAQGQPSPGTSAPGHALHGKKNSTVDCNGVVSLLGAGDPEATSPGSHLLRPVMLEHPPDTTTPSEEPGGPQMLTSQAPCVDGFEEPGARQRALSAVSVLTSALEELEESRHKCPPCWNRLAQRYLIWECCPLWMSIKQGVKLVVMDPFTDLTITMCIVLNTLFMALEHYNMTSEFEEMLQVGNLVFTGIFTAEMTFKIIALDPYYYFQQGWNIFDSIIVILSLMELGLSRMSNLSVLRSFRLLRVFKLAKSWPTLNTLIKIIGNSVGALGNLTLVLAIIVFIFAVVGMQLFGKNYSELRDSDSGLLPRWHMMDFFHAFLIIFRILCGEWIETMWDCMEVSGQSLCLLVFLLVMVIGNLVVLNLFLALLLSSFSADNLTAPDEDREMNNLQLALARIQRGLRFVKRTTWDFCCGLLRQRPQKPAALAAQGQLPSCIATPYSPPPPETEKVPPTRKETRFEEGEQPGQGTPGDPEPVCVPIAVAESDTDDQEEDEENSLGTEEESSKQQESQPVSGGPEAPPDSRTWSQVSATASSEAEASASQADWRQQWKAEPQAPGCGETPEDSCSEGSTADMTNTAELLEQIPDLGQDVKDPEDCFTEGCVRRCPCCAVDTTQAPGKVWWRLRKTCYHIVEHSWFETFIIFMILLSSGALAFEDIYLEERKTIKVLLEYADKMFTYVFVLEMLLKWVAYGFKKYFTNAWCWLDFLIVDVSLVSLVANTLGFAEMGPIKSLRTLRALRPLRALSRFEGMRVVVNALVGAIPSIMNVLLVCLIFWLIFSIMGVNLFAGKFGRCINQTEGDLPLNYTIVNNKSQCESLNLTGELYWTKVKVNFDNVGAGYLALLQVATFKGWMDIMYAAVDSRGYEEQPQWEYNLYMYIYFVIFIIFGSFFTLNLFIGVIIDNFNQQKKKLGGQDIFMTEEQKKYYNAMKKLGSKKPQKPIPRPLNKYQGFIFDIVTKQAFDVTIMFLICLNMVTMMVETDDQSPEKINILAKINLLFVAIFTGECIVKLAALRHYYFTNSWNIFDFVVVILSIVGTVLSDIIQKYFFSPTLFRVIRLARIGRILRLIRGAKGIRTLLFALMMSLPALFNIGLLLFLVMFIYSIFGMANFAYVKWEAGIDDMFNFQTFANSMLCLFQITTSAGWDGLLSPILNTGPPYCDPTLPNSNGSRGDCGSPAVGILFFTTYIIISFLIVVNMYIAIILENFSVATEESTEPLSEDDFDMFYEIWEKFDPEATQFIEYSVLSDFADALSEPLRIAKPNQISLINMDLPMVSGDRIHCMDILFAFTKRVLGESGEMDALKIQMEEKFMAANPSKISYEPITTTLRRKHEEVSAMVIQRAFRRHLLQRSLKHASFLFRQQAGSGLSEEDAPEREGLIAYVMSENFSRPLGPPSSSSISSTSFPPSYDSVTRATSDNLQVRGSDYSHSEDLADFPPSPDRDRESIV

By IC50 is commonly meant the point on the concentration scale where inhibition reaches its midpoint. As to `CC[C@H](C)[C@@H]1NC(=O)[C@@H]2CSSC[C@@H]3NC(=O)[C@H](C(C)C)NC(=O)[C@H](CC(C)C)NC(=O)[C@H](CC(N)=O)NC(=O)[C@@H]4CCCN4C(=O)[C@H](CCCNC(=N)N)NC(=O)[C@H](CSSC[C@H](NC(=O)[C@@H](N)CC(=O)O)C(=O)N[C@@H](CC(C)C)C(=O)NCC(=O)N[C@@H](C)C(=O)N[C@@H](Cc4ccccc4)C(=O)N[C@@H](CCCNC(=N)N)C(=O)N[C@@H](CCCCN)C(=O)N2)NC(=O)[C@H](CSSC[C@@H](C(=O)N[C@@H](CCCCN)C(=O)N[C@@H](Cc2ccc(O)cc2)C(=O)N[C@H](C(=O)N[C@@H](Cc2ccccc2)C(N)=O)C(C)C)NC(=O)[C@H](Cc2c[nH]c4ccccc24)NC(=O)[C@H](CCCCN)NC(=O)[C@H](Cc2c[nH]cn2)NC(=O)[C@H]([C@@H](C)O)NC(=O)[C@H](C)NC(=O)[C@H](CO)NC3=O)NC(=O)[C@H](CCCCN)NC(=O)[C@H](CC(=O)O)NC(=O)[C@H](CC(N)=O)NC(=O)[C@H](CC(=O)O)NC(=O)[C@@H]2CCCN2C1=O` [[Ala5,25;Phe6]GpTx-1(1-34)] (H-DCLGAFRKCIPDNDKCCRPNLVCSATHKWCKYVF-NH2; disulfide 2-17, 9-23, 16-30), the values for the IC50 on hNav1.5 and at hNav1.7 were over 10000 nM and 86 nM, respectively.
For `CC[C@H](C)[C@@H]1NC(=O)[C@@H]2CSSC[C@@H]3NC(=O)[C@H](C(C)C)NC(=O)[C@H](CC(C)C)NC(=O)[C@H](CC(N)=O)NC(=O)[C@@H]4CCCN4C(=O)[C@H](CCCNC(=N)N)NC(=O)[C@H](CSSC[C@H](NC(=O)[C@@H](N)CC(=O)O)C(=O)N[C@@H](CC(C)C)C(=O)NCC(=O)N[C@@H](C)C(=O)N[C@@H](CCSC)C(=O)N[C@@H](CCCNC(=N)N)C(=O)N[C@@H](CCCCN)C(=O)N2)NC(=O)[C@H](CSSC[C@@H](C(=O)N[C@@H](CCCCN)C(=O)N[C@@H](Cc2ccc(O)cc2)C(=O)N[C@H](C(=O)N[C@@H](Cc2ccccc2)C(N)=O)C(C)C)NC(=O)[C@H](Cc2c[nH]c4ccccc24)NC(=O)[C@H](CCN)NC(=O)[C@H](Cc2c[nH]cn2)NC(=O)[C@H]([C@@H](C)O)NC(=O)[C@H](CCCNC(=N)N)NC(=O)[C@H](CO)NC3=O)NC(=O)[C@H](CCCCN)NC(=O)[C@H](CC(=O)O)NC(=O)[C@H](CC(N)=O)NC(=O)[C@H](CC(=O)O)NC(=O)[C@@H]2CCCN2C1=O` [[Ala5;Dab28]GpTx-1(1-34)] (H-DCLGAMRKCIPDNDKCCRPNLVCSRTH[Dab]WCKYVF-NH2; disulfide 2-17, 9-23, 16-30) the same measures were over 10000 nM and 13 nM.
For `CC[C@H](C)[C@@H]1NC(=O)[C@@H]2CSSC[C@@H]3NC(=O)[C@H](C(C)C)NC(=O)[C@H](CC(C)C)NC(=O)[C@H](CC(N)=O)NC(=O)[C@@H]4CCCN4C(=O)[C@H](CCCNC(=N)N)NC(=O)[C@H](CSSC[C@H](NC(=O)[C@@H](N)CC(=O)O)C(=O)N[C@@H](CC(C)C)C(=O)NCC(=O)N[C@@H](C)C(=O)N[C@@H](CCSC)C(=O)N[C@@H](CCCNC(=N)N)C(=O)N[C@@H](CCCCN)C(=O)N2)NC(=O)[C@H](CSSC[C@@H](C(=O)N[C@@H](CCCCN)C(=O)N[C@@H](Cc2ccc(O)cc2)C(=O)N[C@H](C(=O)N[C@@H](Cc2ccccc2)C(N)=O)C(C)C)NC(=O)[C@H](Cc2c[nH]c4ccccc24)NC(=O)[C@H](Cc2c[nH]cn2)NC(=O)[C@H](Cc2c[nH]cn2)NC(=O)[C@H]([C@@H](C)O)NC(=O)[C@H](CCCNC(=N)N)NC(=O)[C@H](CO)NC3=O)NC(=O)[C@H](CCCCN)NC(=O)[C@H](CC(=O)O)NC(=O)[C@H](CC(N)=O)NC(=O)[C@H](CC(=O)O)NC(=O)[C@@H]2CCCN2C1=O` [[Ala5;His28]GpTx-1(1-34)] (H-DCLGAMRKCIPDNDKCCRPNLVCSRTHHWCKYVF-NH2; disulfide 2-17, 9-23, 16-30) the same measures were over 10000 nM and 26 nM.
For `CC[C@H](C)[C@@H]1NC(=O)[C@@H]2CSSC[C@@H]3NC(=O)[C@H](C(C)C)NC(=O)[C@H](CC(C)C)NC(=O)[C@H](CC(N)=O)NC(=O)[C@@H]4CCCN4C(=O)[C@H](CCCNC(=N)N)NC(=O)[C@H](CSSC[C@H](NC(=O)[C@@H](N)CC(=O)O)C(=O)N[C@@H](CC(C)C)C(=O)NCC(=O)N[C@@H](Cc4ccccc4)C(=O)N[C@@H](CCSC)C(=O)N[C@@H](CCCNC(=N)N)C(=O)N[C@@H](CCCCN)C(=O)N2)NC(=O)[C@H](CSSC[C@@H](C(=O)N[C@@H](CCCCN)C(=O)N[C@@H](Cc2ccc(O)cc2)C(=O)N[C@H](C(=O)N[C@@H](Cc2ccccc2)C(N)=O)C(C)C)NC(=O)[C@H](Cc2c[nH]c4ccccc24)NC(=O)[C@H](CCCCN)NC(=O)[C@H](Cc2c[nH]cn2)NC(=O)[C@H]([C@@H](C)O)NC(=O)[C@H](CCC(=O)O)NC(=O)[C@H](CO)NC3=O)NC(=O)[C@H](CCCCN)NC(=O)[C@H](CC(=O)O)NC(=O)[C@H](CC(N)=O)NC(=O)[C@H](CC(=O)O)NC(=O)[C@@H]2CCCN2C1=O` [[Glu25]GpTx-1(1-34)] (H-DCLGFMRKCIPDNDKCCRPNLVCSETHKWCKYVF-NH2; disulfide 2-17, 9-23, 16-30) the same measures were over 10000 nM and 28 nM.
Turning to `CC(C)C[C@@H]1NC(=O)[C@H](C)NC(=O)CNC(=O)[C@H](CC(C)C)NC(=O)[C@@H](NC(=O)[C@@H](N)CC(=O)O)CSSC[C@@H]2NC(=O)[C@@H]3CSSC[C@@H](C(=O)N[C@@H](CCCCN)C(=O)N[C@@H](Cc4ccc(O)cc4)C(=O)N[C@H](C(=O)N[C@@H](Cc4ccccc4)C(N)=O)C(C)C)NC(=O)[C@H](Cc4c[nH]c5ccccc45)NC(=O)[C@H](CCCCN)NC(=O)[C@H](Cc4c[nH]cn4)NC(=O)[C@H]([C@@H](C)O)NC(=O)[C@H](CCCNC(=N)N)NC(=O)[C@H](CO)NC(=O)[C@H](CSSC[C@H](NC(=O)[C@H](CCCCN)NC(=O)[C@H](CCCNC(=N)N)NC1=O)C(=O)N[C@@H](CCC(=O)O)C(=O)N1CCC[C@H]1C(=O)N[C@@H](CC(=O)O)C(=O)N[C@@H](CC(N)=O)C(=O)N[C@@H](CC(=O)O)C(=O)N[C@@H](CCCCN)C(=O)N3)NC(=O)[C@H](C(C)C)NC(=O)[C@H](CC(C)C)NC(=O)[C@H](CC(N)=O)NC(=O)[C@@H]1CCCN1C(=O)[C@H](CCCNC(=N)N)NC2=O` [[Ala5;Leu6;Glu10]GpTx-1(1-34)], the IC50 against hNav1.5 is over 10000 nM; on hNav1.7, 30 nM.
Consider `CC[C@H](C)[C@@H]1NC(=O)[C@@H]2CSSC[C@@H]3NC(=O)[C@H](C(C)C)NC(=O)[C@H](CC(C)C)NC(=O)[C@H](CC(N)=O)NC(=O)[C@@H]4CCCN4C(=O)[C@H](CCCNC(=N)N)NC(=O)[C@H](CSSC[C@H](NC(=O)[C@@H](N)CC(=O)O)C(=O)N[C@@H](CC(C)C)C(=O)NCC(=O)N[C@@H](C)C(=O)N[C@@H](CCSC)C(=O)N[C@@H](CCCNC(=N)N)C(=O)N[C@@H](CCCCN)C(=O)N2)NC(=O)[C@H](CSSC[C@@H](C(=O)N[C@@H](CCCCN)C(=O)N[C@@H](Cc2ccc(O)cc2)C(=O)N[C@H](C(=O)N[C@@H](Cc2ccccc2)C(N)=O)C(C)C)NC(=O)[C@H](Cc2c[nH]c4ccccc24)NC(=O)[C@H](CCC(N)=O)NC(=O)[C@H](Cc2c[nH]cn2)NC(=O)[C@H]([C@@H](C)O)NC(=O)[C@H](CCCNC(=N)N)NC(=O)[C@H](CO)NC3=O)NC(=O)[C@H](CCCCN)NC(=O)[C@H](CC(=O)O)NC(=O)[C@H](CC(N)=O)NC(=O)[C@H](CC(=O)O)NC(=O)[C@@H]2CCCN2C1=O` [[Ala5;Gln28]GpTx-1(1-34)] (H-DCLGAMRKCIPDNDKCCRPNLVCSRTHQWCKYVF-NH2; disulfide 2-17, 9-23, 16-30), for which the half-inhibitory concentration (IC50) is over 10000 nM at hNav1.5 and 37 nM against hNav1.7.
The corresponding values for `CC[C@H](C)[C@@H]1NC(=O)[C@@H]2CSSC[C@@H]3NC(=O)[C@H](C(C)C)NC(=O)[C@H](CC(C)C)NC(=O)[C@H](CC(N)=O)NC(=O)[C@@H]4CCCN4C(=O)[C@H](CCCNC(=N)N)NC(=O)[C@H](CSSC[C@H](NC(=O)[C@@H](N)CC(=O)O)C(=O)N[C@@H](CC(C)C)C(=O)NCC(=O)N[C@@H](C)C(=O)N[C@@H](CCSC)C(=O)N[C@@H](CCCNC(=N)N)C(=O)N[C@@H](CCCCN)C(=O)N2)NC(=O)[C@H](CSSC[C@@H](C(=O)N[C@@H](CCCCN)C(=O)N[C@@H](Cc2ccc(O)cc2)C(=O)N[C@H](C(=O)N[C@@H](Cc2ccccc2)C(N)=O)C(C)C)NC(=O)[C@H](Cc2c[nH]c4ccccc24)NC(=O)[C@H](CCCCNC(=N)N)NC(=O)[C@H](Cc2c[nH]cn2)NC(=O)[C@H]([C@@H](C)O)NC(=O)[C@H](CCCNC(=N)N)NC(=O)[C@H](CO)NC3=O)NC(=O)[C@H](CCCCN)NC(=O)[C@H](CC(=O)O)NC(=O)[C@H](CC(N)=O)NC(=O)[C@H](CC(=O)O)NC(=O)[C@@H]2CCCN2C1=O` [[Ala5;hArg28]GpTx-1(1-34)] (H-DCLGAMRKCIPDNDKCCRPNLVCSRTH[hArg]WCKYVF-NH2; disulfide 2-17, 9-23, 16-30) are over 10000 nM and 14 nM.
In the case of `CC[C@H](C)[C@@H]1NC(=O)[C@@H]2CSSC[C@@H]3NC(=O)[C@H](C(C)C)NC(=O)[C@H](CC(C)C)NC(=O)[C@H](CC(N)=O)NC(=O)[C@@H]4CCCN4C(=O)[C@H](CCCNC(=N)N)NC(=O)[C@H](CSSC[C@H](NC(=O)[C@@H](N)CC(=O)O)C(=O)N[C@@H](CC(C)C)C(=O)NCC(=O)N[C@@H](C(C)(C)C)C(=O)N[C@@H](CC(C)C)C(=O)N[C@@H](CCCNC(=N)N)C(=O)N[C@@H](CCCCN)C(=O)N2)NC(=O)[C@H](CSSC[C@@H](C(=O)N[C@@H](CCCCN)C(=O)N[C@@H](Cc2ccc(O)cc2)C(=O)N[C@H](C(=O)N[C@@H](Cc2ccccc2)C(N)=O)C(C)C)NC(=O)[C@H](Cc2c[nH]c4ccccc24)NC(=O)[C@H](CCCCN)NC(=O)[C@H](Cc2c[nH]cn2)NC(=O)[C@H]([C@@H](C)O)NC(=O)[C@H](CCCNC(=N)N)NC(=O)[C@H](CO)NC3=O)NC(=O)[C@H](CCCCN)NC(=O)[C@H](CC(=O)O)NC(=O)[C@H](CC(N)=O)NC(=O)[C@H](CC(=O)O)NC(=O)[C@@H]2CCCN2C1=O` [[Tle5;Leu6]GpTx-1(1-34)], the IC50 at hNav1.5 was over 10000 nM; on hNav1.7, 17 nM.
